Measured values as given in US20140186302A1, “Nutritional Formulations and Method for Treating Diseases” (priority 2012, published 2014).

Assays:
retinal lesions [1] = assay: Retinal lesion size by retinal photography in subjects having vitreomacular traction (VMT); format: in vivo, human
From the text: As used herein, the terms “units of diameter” and units made in reference to lesion size or diameter refer to units of diameter of the posterior pole of an eye, which measures ten units in diameter between the vascular arcades. A lesion can be larger than 19 units.
Diagnosis of vitreomacular traction (VMT): VMT can be symptomatic or asymptomatic. Complaints of reduced or distorted vision may or may not be reported by the subject. Measurement of visual acuity (VA) may or may not be normal or reduced in one or both eyes. Measurement for distortion on an Amsler grid may or may not show distortion in one or both eyes. Retinal photography may show signs of VMT in the original color composite image (e.g., upper left photo in four panel photo of FIG. 1A). Further analysis of the choroid (e.g., upper right photo in four panel photo of FIG. 1A), the retina (e.g., lower left photo in four panel photo of FIG. 1A), and the retinal nerve fibre layer (RNFL) (e.g., lower right photo in four panel photo of FIG. 1A), may reveal puckering, fibrosis, lamellar splitting, partial lamellar holes, pseudo macular holes, bulging and/or edema in the choroid, retinal and/or RNFL images. Further analysis with “3-D” images of the choroid, retina and RNFL layers may show elevations diagnostic of VMT, such as, for example, the presence, severity and/or size of puckering, partial lamellar holes, macular holes, bulging or edema. Further, “3-D” images can be useful for determining which layers of the eye tissue are affected by VMT.
Ocular imaging: retinal photographs were taken using a Canon CR-1 Digital Retinal Camera and analyzed using EyeScape Digital Imaging Software, version 7.5.5.
The settings used for taking retinal photographs were such that optimal contrast and brightness for each subject was achieved. Most retinal photographs were taken with a dilated pupil. Some subjects have naturally very large pupils. In these cases, pupil dilation may not have been required to obtain sufficient images. The Canon CR-1 has a setting for small pupils that was used as required.
Data were collected from 40 subjects having symptomatic VMT over a period of 4.5 years.
Subjects were treated daily with lutein and zeaxanthin as described in table 1.

retinal lesions [2] = assay: as above; format: in vivo, human; conditions: Case 1, lutein (10 mg) every other day, four months
[3] = Lutein 5 mg, zeaxanthin 0 mg, case 31
[4] = Lutein 18 mg, zeaxanthin 0 mg, case 13
[5] = Lutein 20 mg, zeaxanthin 0 mg, case 2
[6] = Lutein 0 mg, zeaxanthin 1 mg, case 27

| Structure (SMILES) | OD lesion (units) (retinal lesions [1]; [3]) | OS lesion (units) (retinal lesions [1]; [3]) | OD lesion (units) (retinal lesions [1]; [4]) | OS lesion (units) (retinal lesions [1]; [4]) | OD lesion (units) (retinal lesions [1]; [5]) | OS lesion (units) (retinal lesions [1]; [5]) | ERM OD size after treatment (retinal lesions [2]; from 1.5 units) [units] | OS macular pucker size after treatment (retinal lesions [2]; from 6.5 units) [units] | OD lesion (units) (retinal lesions [1]; [6]) | OS lesion (units) (retinal lesions [1]; [6]) |
| --- | --- | --- | --- | --- | --- | --- | --- | --- | --- | --- |
| CC1=C[C@H](O)CC(C)(C)[C@H]1/C=C/C(C)=C/C=C/C(C)=C/C=C/C=C(C)/C=C/C=C(C)/C=C/C1=C(C)C[C@@H](O)CC1(C)C [lutein] | 0 | 0.5 | 0 | 0 | 0 | 3 | 0.5 | 5.0 | – | – |
| CC1=C(/C=C/C(C)=C/C=C/C(C)=C/C=C/C=C(C)/C=C/C=C(C)/C=C/C2=C(C)C[C@@H](O)CC2(C)C)C(C)(C)C[C@H](O)C1 [zeaxanthin] | – | – | – | – | – | – | – | – | 0.5 | 0.5 |
